The target in series [1] is MCL-1 (Homo sapiens (Human), UniProt Q07820, K194A/K197A/R201A). Put plainly: Protein-protein interaction assay MCL-1/Noxa BH3 peptide (MCL-1 assay), TR-FRET. The format is binding. The note with it: MCL-1/Noxa BH3 peptide TR-FRET; median. The essentials: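 TR-FRET competition between MBP-MCL-1 (173-321, 1 nM) and biotin-Noxa BH3 peptide (1 nM) with anti-MBP-Eu/streptavidin-XL665; 11 compound levels 0.1 nM–20 μM, 10 min preincubation. Incubated 1 h at 22 °C then overnight at 4 °C, pH 7 Tris buffer. 665/620 ratio normalized to DMSO and no-MCL-1; 4-parameter IC50.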

Series [2] deals with SUDHL5. Nature of the series: Induction of cytotoxicity, SUDHL5 (Assay 6). The note with it: read-out: IC50 Cytotox SUDHL5 [M] (median), SUDHL5 cells, 5 h, CellTiter-Glo.
Description: In principle, compounds that induce apoptosis will concomitantly induce cell cytotoxicity. Therefore, cytotoxicity assays were run in parallel in SUDHL5 and SUDHL10 cells.
The different cell lines were plated in culture medium (RPMI 1640 [GIBCO #22400-089] supplemented with 10% Fetal Bovine Serum) at a density of 3,300 cells in 30 μl/well in a sterile, solid black, flat bottom, polystyrene, TC-treated 384-well microplate (Corning #3571) using Multidrop Combi Reagent Dispenser. As a control, medium without cells was also added to the plate. Cells were incubated in a humidified incubator at 37° C. overnight. On the next day, the cells were treated with compounds (stock solution, 10 mM in DMSO) using the HP D300 Digital Dispenser in a concentration range of 3.3×10e-5 M (33 μM) to 5×10e-9 M (5 nM) in a single-dot curve with at least 16 dilutions and a DMSO concentration of 0.33%. Rim wells were excluded. The cells were incubated for 5 h hours in a humidified incubator at 37° C. After this incubation, 30 μl of CellTiter-Glo® Luminescent Cell Viability reagent (Promega, G7573) was added to each well using the Multidrop Combi Reagent Dispenser, followed by 15 min incubation on a shaker at room temperature. Finally, luminescence was read at 0.1 ms, with a gain of 3000 using the PHERAstar FS microplate reader (BMG Labtech).
The Bella DRC Master Sheet was used to calculate IC50s, with fixed CI=0 and C0=1.
The subject of series [3] is A2780. Put plainly: Antiproliferation assay A2780 (Assay 7). The format is cell-based. The note with it: A2780 cells, CellTiter-Glo, single determinations, read-out: IC50 Antiproli A2780. The essentials: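 Treated cells sat 72 h in a humidified 37 °C incubator, outer wells unused, before CellTiter-Glo reagent and a 10 min wait preceded luminescence reading; identical measurement of a parallel day 0 plate defined time zero.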

The test system of series [4] is SUDHL10. Put plainly: Induction of cytotoxicity, SUDHL10 (Assay 6). The settings on record: read-out: IC50 Cytotox SUDHL10 [M] (median), SUDHL10 cells, 5 h, CellTiter-Glo.
Series [5] deals with SUDHL5. Put plainly: Induction of caspase-3/7 activity, SUDHL5 (Assay 4). The format is cell-based. The settings on record: SUDHL5 cells. The method, boiled down:
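DLBCL lines treated with compounds for 3 h at 37° C.; caspase-3/7 activity read by Caspase-Glo 3/7 luminescence. Medium-only background subtracted; EC50 fitted with bottom fixed at 1 and top set to reference compound's maximal induction.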

[6] abbreviates: Homo sapiens, SU-DHL-5, 3 h, Caspase-Glo 3/7, median.

Structures can show the parent of a compound that is named as a salt. Where two headings read alike, the source gives them in different places.

MCL-1, sequence (Q07820 whole entry K194A/K197A/R201A, looked up): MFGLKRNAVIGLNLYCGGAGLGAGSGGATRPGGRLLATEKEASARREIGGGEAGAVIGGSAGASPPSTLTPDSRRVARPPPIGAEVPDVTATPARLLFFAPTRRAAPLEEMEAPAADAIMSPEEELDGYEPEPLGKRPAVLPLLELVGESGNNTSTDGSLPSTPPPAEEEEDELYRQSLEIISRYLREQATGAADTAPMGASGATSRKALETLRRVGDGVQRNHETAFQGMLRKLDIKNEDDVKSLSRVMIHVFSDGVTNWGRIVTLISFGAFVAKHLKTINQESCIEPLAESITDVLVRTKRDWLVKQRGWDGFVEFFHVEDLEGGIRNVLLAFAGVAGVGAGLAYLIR

`CCc1nn(C)c2c1-c1c(F)ccc3c(CCCOc4cccc5cc(F)ccc45)c(C(=O)O)n(c13)CCCCOC2` (single isomer, unassigned; enantiomer 1) [Example 39, 3-ethyl-4-fluoro-7-{3-[(6-fluoronaphthalen-1-yl)oxy]propyl}-1-methyl-1,10,11,12,13,15-hexahydropyrazolo[4′,3′:9,10][1,6]oxazacycloundecino[8,7,6-hi]indole-8-carboxylic acid-N-ethylethanamine salt (enantiomer 1)]: the IC50 came to 0.8 nM in series [1], 6.2e-07 M in series [2], 4.84 µM in series [3] (72 h) and 1e-06 M in series [4]. Besides, the EC50 in series [5] (3 h, Caspase-Glo 3/7, median) stood at 560 nM.

For `CCc1nn(C)c2c1-c1c(F)ccc3c(CCCOc4cccc5c4CCC5)c(C(=O)O)n(c13)CCCCOC2` (racemic) [Example 45, (rac)-1-(3-((2,3-dihydro-1H-inden-4-yl)oxy)propyl)-12-ethyl-13-fluoro-10-methyl-4,5,6,7,9,10-hexahydropyrazolo[4′,3′:9,10][1]oxa[6]azacycloundecino[8,7,6-hi]indole-2-carboxylic acid], the IC50 in series [1] was determined as 1.4 nM; in series [2] (Homo sapiens, SU-DHL-5, 5 h), 1.9e-06 M; in series [3] (Homo sapiens, A2780, 72 h), 28.2 µM; in series [4] (Homo sapiens, SU-DHL10, 5 h) it was 3.4e-06 M. In addition, the EC50 in series [5] (setting [6]) was found to be 1400 nM.

Consider `Cc1nn(C)c2c1-c1c(F)ccc3c(CCCOc4ccc(F)c5ccccc45)c(C(=O)O)n(c13)CCCCOC2` (racemic) [Example 33, (rac)-13-fluoro-1-(3-((4-fluoronaphthalen-1-yl)oxy)propyl)-10,12-dimethyl-4,5,6,7,9,10-hexahydropyrazolo[4′,3′:9,10][1]oxa[6]azacycloundecino[8,7,6-hi]indole-2-carboxylic acid], for which the 50% inhibitory concentration (IC50) in series [1] amounted to 1.7 nM; in series [2] (Homo sapiens, SU-DHL-5, 5 h), 3.5e-06 M; in series [3] (Homo sapiens, A2780, 72 h), 23.3 µM; in series [4] (Homo sapiens, SU-DHL10, 5 h) it was 8.4e-06 M. The response in series [5] (setting [6]) was half-maximal at 2900 nM (EC50).

These data come from US11286263B2, “Macrocyclic fluorine substituted indole derivatives” (The Broad Institute, Inc., priority 2017, dated 2022).
